In the supplement of paper PMC10307832:

What was measured:
Experiment in all cases: relative viability (nuclei count vs DMSO), 5 days (fraction); higher = more cells survive
XMD8-85 + Tozasertib = compound: CN1CCN(CC1)C2=CC(=C(C=C2)NC3=NC=C4C(=N3)N(C5=CC=CC=C5C(=O)N4C)C)OC [XMD8-85] + Cc1cc(Nc2cc(N3CCN(C)CC3)nc(Sc3ccc(NC(=O)C4CC4)cc3)n2)n[nH]1 [Tozasertib] (partner 0.1 µM)
Procedure, shortened: (§1)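 Lung cancer cell lines in 1536-well plates were dosed by pin tool the day after seeding, either with one drug alone or with a fixed anchor-drug dose plus five library-drug doses (not always all listed) in √10 steps. After 5 days, cells were fixed and their nuclei stained in one step (final 0.05% Triton X-100, 1% formaldehyde, 1 ug/ml Hoechst), then counted on 4× images. Relative viability is the nuclei count in treated wells divided by that in vehicle wells. Values are medians of duplicate plates.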

4EGI-1 + Linsitinib = compound: O=C(O)C(Cc1ccccc1[N+](=O)[O-])=NNc1nc(-c2ccc(Cl)c(Cl)c2)cs1 (mixture of isomers) [4EGI-1] + C[C@]1(O)C[C@@H](c2nc(-c3ccc4ccc(-c5ccccc5)nc4c3)c3c(N)nccn32)C1 [Linsitinib] (partner 1 µM)
Procedure, shortened: as §1

4EGI-1 + Palbociclib = compound: O=C(O)C(Cc1ccccc1[N+](=O)[O-])=NNc1nc(-c2ccc(Cl)c(Cl)c2)cs1 (mixture of isomers) [4EGI-1] + CC(=O)c1c(C)c2cnc(Nc3ccc(N4CCNCC4)cn3)nc2n(C2CCCC2)c1=O [Palbociclib] (partner 0.5 µM)
Procedure, shortened: as §1

4EGI-1 + Navitoclax = compound: O=C(O)C(Cc1ccccc1[N+](=O)[O-])=NNc1nc(-c2ccc(Cl)c(Cl)c2)cs1 (mixture of isomers) [4EGI-1] + CC1(C)CCC(c2ccc(Cl)cc2)=C(CN2CCN(c3ccc(C(=O)NS(=O)(=O)c4ccc(N[C@H](CCN5CCOCC5)CSc5ccccc5)c(S(=O)(=O)C(F)(F)F)c4)cc3)CC2)C1 [Navitoclax] (partner 0.5 µM)
Procedure, shortened: as §1

Row | Cell Line | relative viability (XMD8-85 + Tozasertib; first compound 0.08 µM) | relative viability (XMD8-85 + Tozasertib; first compound 0.253 µM) | relative viability (XMD8-85 + Tozasertib; first compound 0.8 µM) | relative viability (XMD8-85 + Tozasertib; first compound 2.53 µM) | relative viability (XMD8-85 + Tozasertib; first compound 8 µM) | relative viability (4EGI-1 + Linsitinib; first compound 0.5 µM) | relative viability (4EGI-1 + Linsitinib; first compound 1.581 µM) | relative viability (4EGI-1 + Linsitinib; first compound 5 µM) | relative viability (4EGI-1 + Linsitinib; first compound 15.81 µM) | relative viability (4EGI-1 + Linsitinib; first compound 50 µM) | relative viability (4EGI-1 + Palbociclib; first compound 0.5 µM) | relative viability (4EGI-1 + Palbociclib; first compound 1.581 µM) | relative viability (4EGI-1 + Palbociclib; first compound 5 µM) | relative viability (4EGI-1 + Palbociclib; first compound 15.81 µM) | relative viability (4EGI-1 + Palbociclib; first compound 50 µM) | relative viability (4EGI-1 + Navitoclax; first compound 0.5 µM) | relative viability (4EGI-1 + Navitoclax; first compound 1.581 µM) | relative viability (4EGI-1 + Navitoclax; first compound 5 µM) | relative viability (4EGI-1 + Navitoclax; first compound 15.81 µM) | relative viability (4EGI-1 + Navitoclax; first compound 50 µM)
1 | NCI-H358 | 0.106 | 0.0979 | 0.119 | 0.11 | 0.0877 | 0.882 | 0.689 | 0.889 | 0.69 | 0.208 | 0.12 | 0.153 | 0.152 | 0.153 | 0.12 | – | – | – | – | –
2 | NCI-H522 | 0.557 | 0.562 | 0.41 | 0.519 | 0.467 | – | – | – | – | – | 1.07 | 0.822 | 1.2 | 1.08 | 0.953 | – | – | – | – | –
3 | NCI-H596 | 0.75 | 0.834 | 0.975 | 0.728 | 0.488 | 1.06 | 0.818 | 1.09 | 1.02 | 0.815 | – | – | – | – | – | 0.956 | 0.708 | 0.86 | 0.869 | 0.805
4 | NCI-H650 | 0.738 | 0.713 | 0.68 | 0.608 | 0.338 | 0.996 | – | 1.24 | 0.915 | 0.732 | 0.319 | – | 0.295 | 0.319 | 0.33 | – | – | – | – | –
5 | NCI-H661 | 0.383 | 0.346 | 0.366 | 0.353 | 0.392 | 0.723 | 0.502 | 0.624 | 0.394 | 0.309 | 0.454 | 0.413 | 0.385 | 0.31 | 0.284 | – | – | – | – | –
6 | NCI-H1299 | – | – | – | – | – | 0.944 | 0.931 | 0.994 | 1.05 | 0.849 | – | – | – | – | – | 1.1 | 1.04 | 1.04 | 0.986 | 1.08
7 | NCI-H1563 | – | – | – | – | – | 1.31 | 0.979 | 1.29 | 1.22 | 0.883 | – | – | – | – | – | – | – | – | – | –
8 | NCI-H1623 | 0.495 | 0.336 | 0.41 | 0.421 | 0.367 | – | – | – | – | – | – | – | – | – | – | – | – | – | – | –
9 | NCI-H1648 | 0.438 | 0.394 | – | – | 0.324 | – | – | – | – | – | 0.271 | 0.232 | 0.314 | 0.275 | 0.253 | – | – | – | – | –
10 | NCI-H1650 | 0.358 | 0.409 | 0.413 | 0.216 | 0.177 | – | – | – | – | – | 0.417 | – | 0.331 | 0.255 | 0.141 | 1.23 | – | 0.932 | 0.354 | 0.286
11 | NCI-H1703 | – | – | – | – | – | 1.4 | 0.632 | 1.06 | 1.27 | 0.994 | – | – | – | – | – | 1.54 | 1.06 | 1.6 | 1.19 | 0.427
12 | NCI-H2170 | 0.681 | 0.671 | 0.731 | 0.639 | 0.456 | – | – | – | – | – | 0.423 | 0.363 | 0.382 | 0.392 | 0.273 | 0.671 | 0.515 | 0.584 | 0.573 | 0.354
13 | NCI-H2342 | 0.529 | 0.46 | 0.478 | 0.424 | 0.405 | – | – | – | – | – | 0.506 | 0.547 | 0.582 | 0.59 | 0.539 | – | – | – | – | –
14 | SW 900 | 0.553 | 0.657 | 0.557 | 0.424 | 0.312 | – | – | – | – | – | 0.552 | 0.573 | 0.69 | 0.395 | 0.234 | – | – | – | – | –
